Experimental data: patent US20250228865A1, “COMPOUNDS FOR ENHANCING READ THROUGH OF GENES CONTAINING PREMATURE TERMINATION CODONS AND METHODS FOR MAKING AND USING THE SAME” (Sanofi US Services Inc., priority 2022, published 2025)
pEC50: −log10 of the molar value.

Key:
[1] = tested on: recombinant human CFTR carrying the premature stop codon (PTC) mutation G542X; assay: CFTR-PTC mutant translation readthrough, Nanoluc tagged CFTR luminescence (G542X cell line); format: cell-based; conditions: in combination with G418, G542X cell line; for CFTR G542X ACTIVITY Fold 10 μM G-418: fold over 10 μM G-418; for pEC50: 16HBE cells
Experimental: 16HBE human bronchial epithelial cells (stably over-expressing recombinant human CFTR carrying the premature stop codon (PTC) mutation G542X or R1162X along with a Nanoluc tag incorporated into the CFTR channel within extracellular loop 4 in G542X cell line or C-terminus end in the R1162X cell line were seeded at 0.01×10^6 cells/well and grown in Minimal Essential Medium (MEM) as monolayers in 384 well plates and incubated at 37° C. with 5% CO2. Media was changed every other day until day of experiment. Agents to be evaluated were made up in separate 384 well, polypropylene plates at a 2X the final desired test concentration. Test agent 10-point concentration response curves were constructed using the Labcyte Echo 555 acoustic dispenser. Test agents were typically tested at a max final test concentrations of 50 μM with sequential 2-fold lower concentrations below this in the absence or presence of a fixed 10 μM concentration of the aminoglycoside G418 made up in MEM growth media (reduced Serum Media+HEPES Buffer+2.4 g/L Sodium Bicarbonate+L-Glutamine containing CFTR corrector VX-809 (3 μM)). Treatment with 10 μM G418 alone produced approximately 10% of the response observed with a maximally effective concentration of G418 (typically 125-250 μM). Test agent effects in presence of 10 μM G418 were compared to control wells on the plate containing a maximally effective concentration of G418 (typically 125-250 μM) made up in the same media. 25 ul of test agents/control solutions were transferred from the compound plate to the cell plate, which already contained 25 ul/well of cell plating media, using an Integra Viaflo 384. Cell plates were incubated with the compounds for 48 hours, at which time they were processed using Nanoluc luminescence Kit (Promega Nano-Glo Live Cell Assay System) to measure CFTR-PTC mutant translation readthrough. Luminescence was measured as follows. Cell plates were removed from the incubator and allowed to equilibrate to room temperature for 20 minutes. Media was removed from all wells and the plates were blotted to remove excess remaining volume. Nano-Glo Live Cell Substrate was diluted 1:20 in the appropriate amount of Nano-Glo LCS Dilution Buffer to accommodate the number of cell plates being tested. The substrate/dilution buffer mix was then diluted 1:3 with MEM media to make the appropriate volume for the number of plates being tested. The substrate/dilution buffer/OptiMEM mix was added across the Nanoluc testing cell plates and the plates were read for luminescence signal immediately. Test agent effects on CFTR translation readthrough was determined by normalizing any observed increase in luminescence induced by 48 hours pretreatment with test compound to the magnitude of luminescence increase produced by pretreatment with a maximally effective concentration of the reference readthrough enhancing agent G418 (125-250 μM).

[2] = tested on: recombinant human CFTR carrying the premature stop codon (PTC) mutation R1162X; assay: CFTR-PTC mutant translation readthrough, Nanoluc tagged CFTR luminescence (R1162X cell line); format: cell-based; conditions: for CFTR R1162X ACTIVITY Fold 10 μM G-418: fold over 10 μM G-418, in combination with G418; for pEC50: in combination with G418, 16HBE cells, read-out: CFTR R1162X ACTIVITY EC50
Procedure, shortened: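 Readthrough is the 48 h compound-induced luminescence increase scaled to that of maximal G418 (125-250 μM). Compounds run from 50 μM final in 2-fold steps, ±10 μM G418, on 16HBE lines carrying Nanoluc-tagged CFTR G542X (extracellular loop 4 tag) or R1162X (C-terminal tag), with 3 μM VX-809 present.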

SMILES | CFTR G542X ACTIVITY Fold 10 μM G-418 [1] | pEC50 [1] | CFTR R1162X ACTIVITY Fold 10 μM G-418 [2] | pEC50 [2]
Cc1cccc(C(F)(F)F)c1COc1cnc(N2CC(=O)N(C)C2=O)nc1 | A′ (A′ = ≥10X) | 5.00 to 6.00 | A′ (A′ = ≥10X) | 5.00 to 6.00
Cc1cccc(C(F)(F)F)c1COc1cnc(N2CCC(C(N)=O)C2)nc1 (stereo not shown) | A′ (A′ = ≥10X) | > 6.00 | A′ (A′ = ≥10X) | 5.00 to 6.00
O=C1N[C@@H](CO)CN1c1ncc(OCc2c(Cl)cccc2C(F)(F)F)cn1 [(4R)-1-(5-{[2-chloro-6-(trifluoromethyl)phenyl]methoxy}pyrimidin-2-yl)-4-(hydroxymethyl)imidazolidin-2-one] | C′ (C′ = <5X) | 5.00 to 6.00 | C′ (C′ = <5X) | 5.00 to 6.00
Cc1cccc(C)c1COc1ccc(N2CC(CO)OC2=O)c2ccccc12 (stereo not shown) [3-[4-[(2,6-dimethylphenyl)methoxy]-1-naphthyl]-5-(hydroxymethyl)oxazolidin-2-one] | – | < 5.00 | C′ (C′ = <5X) | < 5.00
OCc1cc(-c2ncc(OCc3c(Cl)cccc3C(F)(F)F)cn2)[nH]n1 | A′ (A′ = ≥10X) | > 6.00 | A′ (A′ = ≥10X) | 5.00 to 6.00
OCCn1cnc(Nc2ccc(OCc3c(Cl)cccc3Cl)cn2)n1 | A′ (A′ = ≥10X) | 5.00 to 6.00 | A′ (A′ = ≥10X) | 5.00 to 6.00
CN(CC1CNCCO1)c1ncc(OCc2c(Cl)cccc2Cl)cn1 (stereo not shown) | C′ (C′ = <5X) | 5.00 to 6.00 | C′ (C′ = <5X) | 5.00 to 6.00
NS(=O)(=O)N1CCN(c2ncc(OCc3c(Cl)cccc3Cl)cn2)CC1 [4-[5-[(2,6-dichlorophenyl)methoxy]pyrimidin-2-yl]piperazine-1-sulfonamide] | A′ (A′ = ≥10X) | 5.00 to 6.00 | A′ (A′ = ≥10X) | < 5.00
NC(=O)c1ncn(-c2ncc(OCc3c(Cl)cccc3Cl)cn2)n1 [1-[5-[(2,6-dichlorophenyl)methoxy]pyrimidin-2-yl]-1,2,4-triazole-3-carboxamide] | C′ (C′ = <5X) | 5.00 to 6.00 | – | < 5.00
Cc1cccc(C(F)(F)F)c1COc1cnc(N2CCC(CO)(CO)CC2)nc1 | A′ (A′ = ≥10X) | > 6.00 | A′ (A′ = ≥10X) | > 6.00
OCc1nnc(-c2ccc(OCc3c(Cl)cccc3Cl)cc2)o1 [[5-[4-[(2,6-dichlorophenyl)methoxy]phenyl]-1,3,4-oxadiazol-2-yl]methanol] | A′ (A′ = ≥10X) | > 6.00 | A′ (A′ = ≥10X) | > 6.00
COc1cccc(Cl)c1COc1ccc(N2CC(CO)OC2=O)cc1 (stereo not shown) | C′ (C′ = <5X) | < 5.00 | C′ (C′ = <5X) | < 5.00
Cc1cccc(C(F)(F)F)c1COc1ccc(N2CCOC(CO)C2)nc1 (stereo not shown) | A′ (A′ = ≥10X) | 5.00 to 6.00 | A′ (A′ = ≥10X) | 5.00 to 6.00
Cc1cccc(C(F)(F)F)c1COc1cnc(N2CCO[C@H](CN)C2)nc1 | A′ (A′ = ≥10X) | > 6.00 | A′ (A′ = ≥10X) | > 6.00
FC1(F)CCN(c2ncc(OCc3c(Cl)cccc3C(F)(F)F)cn2)C1 | A′ (A′ = ≥10X) | 5.00 to 6.00 | A′ (A′ = ≥10X) | 5.00 to 6.00
OCc1nc(-c2ccc(OCc3c(Cl)cccc3Cl)cc2)co1 [[4-[4-[(2,6-dichlorophenyl)methoxy]phenyl]oxazol-2-yl]methanol] | A′ (A′ = ≥10X) | 5.00 to 6.00 | A′ (A′ = ≥10X) | 5.00 to 6.00

SMILES | CFTR G542X ACTIVITY Fold 10 μM G-418 [1] | pEC50 [1] | CFTR R1162X ACTIVITY Fold 10 μM G-418 [2] | pEC50 [2]
Clc1cccc(Cl)c1COc1ccc(-n2cncn2)cc1 [1-[4-[(2,6-dichlorophenyl)methoxy]phenyl]-1,2,4-triazole] | A′ (A′ = ≥10X) | 5.00 to 6.00 | A′ (A′ = ≥10X) | 5.00 to 6.00
Cc1cccc(C(F)(F)F)c1COc1ccc(N2CCOC(CO)C2)cc1 (stereo not shown) | A′ (A′ = ≥10X) | > 6.00 | A′ (A′ = ≥10X) | 5.00 to 6.00
Clc1cccc(Cl)c1COc1cnc(N2C[C@H]3COC[C@H]3C2)nc1 | A′ (A′ = ≥10X) | 5.00 to 6.00 | A′ (A′ = ≥10X) | 5.00 to 6.00
CN(CCCCO)c1ncc(OCc2c(Cl)cccc2Cl)cn1 [4-[[5-[(2,6-dichlorophenyl)methoxy]pyrimidin-2-yl]-methyl-amino]butan-1-ol] | A′ (A′ = ≥10X) | > 6.00 | A′ (A′ = ≥10X) | > 6.00
Clc1cccc(Cl)c1COc1cnc(-c2nnn[nH]2)nc1 [5-[(2,6-dichlorophenyl)methoxy]-2-(1H-tetrazol-5-yl)pyrimidine] | – | < 5.00 | – | < 5.00
Clc1cccc(Cl)c1COc1cnc(N2CCOCC2)nc1 [4-[5-[(2,6-dichlorophenyl)methoxy]pyrimidin-2-yl]morpholine] | A′ (A′ = ≥10X) | 5.00 to 6.00 | A′ (A′ = ≥10X) | 5.00 to 6.00
OCc1ncn(-c2ccc(OCc3c(Cl)cccc3C(F)(F)F)cc2)n1 | A′ (A′ = ≥10X) | > 6.00 | A′ (A′ = ≥10X) | 5.00 to 6.00
OCc1ncn(-c2ccc(OCc3c(Cl)cccc3C(F)(F)F)cn2)n1 | A′ (A′ = ≥10X) | > 6.00 | A′ (A′ = ≥10X) | > 6.00
CN(C)CC1CN(c2ncc(OCc3c(Cl)cccc3Cl)cn2)CCO1 (stereo not shown) | A′ (A′ = ≥10X) | < 5.00 | B′ (B′ = ≥5X to <10X) | < 5.00
NC[C@H]1CN(c2ncc(OCc3c(Cl)cccc3Cl)cn2)CCO1 | A′ (A′ = ≥10X) | > 6.00 | A′ (A′ = ≥10X) | 5.00 to 6.00
OCc1cc(-c2ncc(OCc3c(Cl)cccc3Cl)cn2)no1 [[3-[5-[(2,6-dichlorophenyl)methoxy]pyrimidin-2-yl]isoxazol-5-yl]methanol] | A′ (A′ = ≥10X) | > 6.00 | A′ (A′ = ≥10X) | 5.00 to 6.00
Cc1cccc(C(F)(F)F)c1COc1ccc2nc(CO)cn2c1 | A′ (A′ = ≥10X) | < 5.00 | A′ (A′ = ≥10X) | < 5.00
Cc1cccc(C(F)(F)F)c1COc1cnc(N2CC(=O)NC2=O)nc1 | A′ (A′ = ≥10X) | 5.00 to 6.00 | A′ (A′ = ≥10X) | 5.00 to 6.00
O=C1OC(CO)CN1c1ccc(OCc2c(Cl)cccc2OC(F)F)cc1 (stereo not shown) | C′ (C′ = <5X) | 5.00 to 6.00 | B′ (B′ = ≥5X to <10X) | < 5.00
CC1CC(CO)CN1c1ncc(OCc2c(Cl)cccc2Cl)cn1 (stereo not shown) | A′ (A′ = ≥10X) | 5.00 to 6.00 | A′ (A′ = ≥10X) | 5.00 to 6.00
Cc1cccc(C(F)(F)F)c1COc1cnc(N2C(=O)NC(C)(C)C2=O)nc1 | A′ (A′ = ≥10X) | 5.00 to 6.00 | A′ (A′ = ≥10X) | 5.00 to 6.00
